{"source": "patent US20150274787A1", "about": "“METHOD FOR RECOMBINANT PRODUCTION OF LABYRINTHOPEPTINS AND FUNCTIONAL DERIVATIVES THEREOF” (priority 2011, published 2015)", "molecules": {"B1": {"name": "LabA2_L14A (peptide)", "peptide": "SDWSLWECCSTGSAFACC", "modifications": "thioether (positions not given here); not fully specified (residues 1, 4, 10, 13, bridges); also: labionin residues as in LabA2: methylene bridges between alpha-C atoms, places not given here"}}, "key": {"[1]": {"test_system": "A. namibiensis", "test": "Testing selection markers (antibiotic resistance) suitable for genetic manipulations of A. namibiensis; on Growth after 4 days: key: −: no growth; +: slight growth; ++: medium growth; +++: strong growth; on Growth after 7 days: key: −: no growth; +: slight growth; ++: medium growth; +++: strong growth", "type": "cell-based, Actinomadura namibiensis", "conditions": "for Growth after 4 days / Growth after 7 days: A. namibiensis", "description": "An apramycin resistance gene was used as selectable marker for vectors used in this study because from all eight tested antibiotics A. namibiensis was […] to apramycin (50 μg/ml). Initially for establishing a way in which DNA can be introduced into A. namibiensis the typical cloning vectors for Streptomyces strains were used. Plasmid pUWLoriT which can replicate autonomously in Streptomyces and plasmid pSET152 which can integrate site-specifically at the bacteriophage ΦC31 attachment site (18) (7) were used. […] Although Actinomaduras and Streptomyces are related it is still possible that origin of replication (ori) for Streptomyces is not recognized by A. namibiensis (9). Description of similar difficulties can be found in the literature (17). This led to the use of vectors harboring replicons of Actinomadura strains: pSETermEΔHindIII_oriCLL4, pK18mobXylE_oripCLL4 and pCLL4_ori_apra. Also a non-replicating plasmid pK18mob2 with a fragment coding for the LabKC modifying enzyme was used for transformation of A. namibiensis."}, "[2]": {"biological_target": "T1, human P2X4 receptor (Homo sapiens, UniProt Q99571)", "T1 construct": "expressed in transfected cells; host or cells: HEK cells (hP2X4_HEK-FITR), expression induced with doxycyclin", "T1 sequence (Q99571 1-388)": "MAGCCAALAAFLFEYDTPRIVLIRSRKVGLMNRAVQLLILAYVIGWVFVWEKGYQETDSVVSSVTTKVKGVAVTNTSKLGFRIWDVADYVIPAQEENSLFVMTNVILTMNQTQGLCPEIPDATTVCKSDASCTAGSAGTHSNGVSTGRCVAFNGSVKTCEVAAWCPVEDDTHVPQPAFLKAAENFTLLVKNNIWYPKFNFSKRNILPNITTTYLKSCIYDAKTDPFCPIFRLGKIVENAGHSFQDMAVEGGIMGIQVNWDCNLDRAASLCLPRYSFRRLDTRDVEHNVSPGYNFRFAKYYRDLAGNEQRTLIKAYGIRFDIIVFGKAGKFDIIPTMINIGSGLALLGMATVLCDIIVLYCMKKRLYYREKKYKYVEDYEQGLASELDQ", "test": "IC50 determination by patch clamp on hP2X4_HEK-FITR cell line (in vitro anti-pain assay)", "type": "cell-based", "conditions": "recombinant human P2X4 in HEK cells, 10 μM ATP, holding potential −60 mV, 0.3 to 90 μM", "excerpt": "Evaluation of anti-pain activity of labyrinthopeptin A2 and its structural analogs LabA2_L14A and LabA2 F15A in an in vitro assay (IC50 determination of LabA2, LabA2_L14A and LabA2_F15A on hP2X4_HEK-FITR-cell line) The use of labyrinthopeptin A2 and its derivatives, in particular LabA2_L14A and LabA2_F15A, as analgesics was investigated for neuropathic pain based on their inhibitory effects on P2X4 receptors (Nagata K et al., 2009).\nRecombinant human P2X4 receptor was expressed in HEK cells (hP2X4_HEK-FITR). hP2X4 expression was induced with doxycyclin 1 μg/ml for 24 h to 48 h. The patch clamp experiment has been performed under standard conditions using an axopatch-200B amplifier and pClamp v10 acquisition software (Axon Instruments Inc, Foster City, Calif., USA). Cells were continuously superfused with an external solution consisting of (in mM) 130 CsCl, 4 NaCl, 1 MgCl2, 1 CaCl2, 10 EGTA (free Ca^2+=6.7 nM) and 10 HEPES (pH 7.4 with CsOH). This was replaced with a […] external solution consisting of (in mM) 145 NaCl, 4 KCl, 2 CaCl2, 1 MgCl2 and 10 HEPES (pH 7.4 with NaOH). 250 ms application of 10 μM ATP (Sigma) every 10 sec was performed. […] Currents were measured at a holding potential of −60 mV.\nResults were calculated using Origin7.5 software (FIG. 27)."}, "[3]": {"biological_target": "T2, Recombinant human P2X4 receptor (human, UniProt Q99571 1-388)", "T2 sequence (looked up)": "T1 sequence (Q99571 1-388)", "test": "cell-based or functional assay"}}, "note": "*1 amine or outer side, *2 acyl side, *3 side chain or, on linkers, in order; H or OH if unused. Where a SMILES comes first, the peptide text is derived from it. Bridges are numbered along the chain shown (N, C = ends). Where no end group is shown, it is not given here. [ ]: non-standard residue; d: D form. The star is where a group is joined. X1 = NC1=N[C@@H]([C@H](N[*:1])C(=O)[*:2])C[C@H](O)N1; ΔAla(Z-3-ureido) = NC(=O)N/C=C(\\N)C(=O)O; β3hOrn = NCCC[C@H](N)CC(=O)*; Dap = NC[C@H](N)C(=O)O"}
{"molecule": "CN[C@@H]1[C@@H](O[C@H]2O[C@H](CO)[C@@H](N)[C@H](O)[C@H]2O)OC2C[C@@H](N)[C@@H](O[C@H]3[C@H](O)[C@@H](O)[C@H](N)C[C@@H]3N)OC2[C@@H]1O", "note": "(stereo partly shown) [Apramycin]", "values": [{"measurement": "sensitivity of A. namibiensis to antibiotic", "setting": "[1]; 50 μg/ml", "value": "sensitive"}, {"measurement": "Growth after 4 days", "setting": "[1]; antibiotic conc. 25 μg/ml", "value": "−"}, {"measurement": "Growth after 7 days", "setting": "[1]; antibiotic conc. 25 μg/ml", "value": "+"}, {"measurement": "Growth after 4 days", "setting": "[1]; antibiotic conc. 50 μg/ml", "value": "−"}, {"measurement": "Growth after 7 days", "setting": "[1]; antibiotic conc. 50 μg/ml", "value": "−"}]}
{"molecule": "NC[C@H]1O[C@H](O[C@H]2[C@H](O)[C@@H](O[C@H]3O[C@H](CO)[C@@H](O)[C@H](N)[C@H]3O)[C@H](N)C[C@@H]2N)[C@H](O)[C@@H](O)[C@@H]1O", "note": "[Kanamycin]", "values": [{"measurement": "Growth after 4 days", "setting": "[1]; antibiotic conc. 50 μg/ml", "value": "+++"}, {"measurement": "Growth after 7 days", "setting": "[1]; antibiotic conc. 50 μg/ml", "value": "+++"}]}
{"molecule": "C[C@@H]1O[C@@H]1P(=O)(O)O", "note": "[Phosphomycin]", "values": [{"measurement": "Growth after 4 days", "setting": "[1]; antibiotic conc. 400 μg/ml", "value": "+++"}, {"measurement": "Growth after 7 days", "setting": "[1]; antibiotic conc. 400 μg/ml", "value": "+++"}]}
{"molecule": "CN[C@@H]1[C@H](O)[C@H](NC)[C@H]2O[C@@]3(O)C(=O)C[C@@H](C)O[C@H]3O[C@@H]2[C@H]1O", "note": "[Spectinomycin]", "values": [{"measurement": "Growth after 4 days", "setting": "[1]; antibiotic conc. 100 μg/ml", "value": "+++"}, {"measurement": "Growth after 7 days", "setting": "[1]; antibiotic conc. 100 μg/ml", "value": "+++"}]}
{"molecule": "[H]/N=C(/N)N[C@H]1[C@H](O)[C@@H](O)[C@H](O[C@@H]2O[C@@H](C)[C@](O)(C=O)[C@H]2O[C@@H]2O[C@@H](CO)[C@H](O)[C@@H](O)[C@@H]2NC)[C@@H](N/C(N)=N\\[H])[C@@H]1O", "note": "[Streptomycin]", "values": [{"measurement": "Growth after 4 days", "setting": "[1]; antibiotic conc. 30 μg/ml", "value": "+"}, {"measurement": "Growth after 7 days", "setting": "[1]; antibiotic conc. 30 μg/ml", "value": "++"}]}
{"molecule": "C=C(NC(=O)C(=C)NC(=O)c1csc(C2=N[C@@H]3c4csc(n4)[C@H]4NC(=O)c5csc(n5)[C@H]([C@](C)(O)[C@@H](C)O)NC(=O)[C@H]5CSC(=N5)/C(=C/C)NC(=O)[C@H]([C@@H](C)O)NC(=O)c5csc(n5)[C@]3(CC2)NC(=O)[C@H](C)NC(=O)C(=C)NC(=O)[C@H](C)NC(=O)[C@H]([C@@H](C)CC)N[C@@H]2C=Cc3c([C@H](C)O)cc(nc3[C@H]2O)C(=O)O[C@@H]4C)n1)C(N)=O", "note": "[Thiostrepton]", "values": [{"measurement": "Growth after 4 days", "setting": "[1]; antibiotic conc. 25 μg/ml", "value": "−"}, {"measurement": "Growth after 7 days", "setting": "[1]; antibiotic conc. 25 μg/ml", "value": "+"}, {"measurement": "sensitivity of A. namibiensis to antibiotic", "setting": "[1]; concentration not given", "value": "not sensitive"}]}
{"molecule": "NCCC[C@H](N)CC(=O)N[C@H]1CNC(=O)[C@H]([C@H]2C[C@H](O)NC(N)=N2)NC(=O)/C(=C/NC(N)=O)NC(=O)[C@H](CO)NC(=O)[C@H](CO)NC1=O", "note": "[Viomycin] (β3hOrn-[Dap]SS[ΔAla(Z-3-ureido)][X1]; lactam 1-C)", "values": [{"measurement": "Growth after 4 days", "setting": "[1]; antibiotic conc. 30 μg/ml", "value": "+"}, {"measurement": "Growth after 7 days", "setting": "[1]; antibiotic conc. 30 μg/ml", "value": "+"}]}
{"molecule": "Hydromycin", "values": [{"measurement": "Growth after 4 days", "setting": "[1]; antibiotic conc. 50 μg/ml", "value": "++"}, {"measurement": "Growth after 7 days", "setting": "[1]; antibiotic conc. 50 μg/ml", "value": "+++"}]}
{"molecule": "LabA2_F15A (SDWSLWECCSTGSLAACC)", "values": [{"measurement": "IC50 (concentration of a substance that blocks 50% of channels)", "setting": "[2]", "value": "could not be determined"}]}
{"molecule": "B1", "values": [{"measurement": "IC50 of inhibition of ATP-evoked currents (patch clamp, hP2X4_HEK-FITR cells)", "setting": "[3]", "value": 30, "unit": "µM"}]}
